Experimental data taken from patent publication US20250230193A1, “CYCLIC COMPOUND HAVING SELECTIVE KRAS INHIBITORY EFFECT ON HRAS AND NRAS” (CHUGAI SEIYAKU KABUSHIKI KAISHA, priority 2022, published 2025).

What was measured:
[1] = target: GDP-bound NRAS wild-type protein (Homo sapiens, UniProt P01111); test: Binding to NRAS by surface plasmon resonance (SPR), Single Cycle Kinetics
[2] = target: GDP-bound HRAS wild-type protein (Homo sapiens, UniProt P01112); test: Binding to HRAS by surface plasmon resonance (SPR), Single Cycle Kinetics
Sequence of GDP-bound HRAS wild-type protein (P01112 whole entry): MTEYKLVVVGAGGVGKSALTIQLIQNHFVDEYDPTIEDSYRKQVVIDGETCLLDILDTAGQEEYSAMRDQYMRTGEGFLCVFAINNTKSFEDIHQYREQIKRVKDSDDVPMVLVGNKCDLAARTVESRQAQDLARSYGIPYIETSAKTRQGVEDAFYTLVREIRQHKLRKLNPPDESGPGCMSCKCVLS

[3] = KD ratio, GDP-bound NRAS wild-type vs GDP-bound KRAS wild-type, SPR
[4] = KD ratio, GDP-bound HRAS wild-type vs GDP-bound KRAS wild-type, SPR

Sequence of GDP-bound NRAS wild-type protein (P01111 whole entry): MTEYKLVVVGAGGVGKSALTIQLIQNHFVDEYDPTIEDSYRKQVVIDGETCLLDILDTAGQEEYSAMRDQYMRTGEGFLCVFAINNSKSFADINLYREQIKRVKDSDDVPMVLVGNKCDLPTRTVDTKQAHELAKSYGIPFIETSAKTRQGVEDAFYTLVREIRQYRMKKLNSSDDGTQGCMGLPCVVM

Row | Structure (SMILES) | NRAS/KRAS (ratio of KD value with respect to GDP-bound NRAS wild-type protein to KD value with respect to KRAS) ([1]; class symbols) | HRAS/KRAS (ratio of KD value with respect to GDP-bound HRAS wild-type protein to KD value with respect to KRAS) ([2]; class symbols) | NRAS/KRAS (ratio of KD value for NRAS to KD value for KRAS) [1, 3] | HRAS/KRAS (ratio of KD value for HRAS to KD value for KRAS) [2, 4] | other results
1 | CCC[C@H]1C(=O)N[C@@H]([C@@H](C)CC)C(=O)N(C)CC(=O)N(C)[C@H]2C/C=C\CCN(C2=O)[C@@H](Cc2ccc(C(F)(F)F)cc2)C(=O)N(C)CC(=O)N[C@@H](CCc2ccc(Cl)c(C(F)(F)F)c2)C(=O)N2C[C@H](OCC)C[C@H]2C(=O)NC2(CC(C)(C)C2)C(=O)N(C)[C@@H](C(CC)CC)C(=O)N(C)[C@H](C(=O)N(C)C)CC(=O)N1C [PP2785] | AA (a compound having 20 or more is denoted as AA) | A (a compound having 10 or more and less than 20 is denoted as A) | – | – | –
2 | CC[C@H](C)[C@@H]1NC(=O)[C@H](CC(C)C)N(C)C(=O)C[C@@H](C(=O)N2CCOCC2)N(C)C(=O)[C@H](C2CCCC2)N(C)C(=O)C2(CCCC2)NC(=O)[C@@H]2CCCN2C(=O)[C@H](CCc2cc(F)c(C(F)(F)F)c(F)c2)NC(=O)CN(C)C(=O)[C@H](Cc2ccc(C(F)(F)F)cc2)N2CCCCC[C@@H](C2=O)N(C)C(=O)[C@H](C)NC1=O [PP0481] | – | – | – | – | NRAS/KRAS (ratio of KD value with respect to GDP-bound NRAS wild-type protein to KD value with respect to KRAS) ([1]; SPR): B (a compound having 3 or more and less than 10 is denoted as B); HRAS/KRAS (ratio of KD value with respect to GDP-bound HRAS wild-type protein to KD value with respect to KRAS) ([2]; SPR): B (a compound having 3 or more and less than 10 is denoted as B)
3 | CCCN(C)C(=O)[C@@H]1CC(=O)N(C)[C@@H](CC2CCC2)C(=O)N[C@@H]([C@@H](C)CC)C(=O)N(C)CC(=O)N(C)[C@H]2C/C=C\CCN(C2=O)[C@@H](Cc2ccc(C(F)(F)F)cc2)C(=O)N(C)CC(=O)N[C@@H](CCc2cc(F)c(C(F)(F)F)c(F)c2)C(=O)N2C[C@H](OCC)C[C@H]2C(=O)NC2(CCC2)C(=O)N(C)[C@@H](C2CCCC2)C(=O)N1C [PP1705] | – | – | AA (a compound having 20 or more is denoted as AA) | A (a compound having 10 or more and less than 20 is denoted as A) | –
4 | CCO[C@@H]1C[C@H]2C(=O)NC3(CC(C)(C)C3)C(=O)N(C)[C@@H](C(CC)CC)C(=O)N(C)[C@H](C(=O)N3CCCCC3)CC(=O)N(C)[C@@H](COC)C(=O)N[C@@H]([C@@H](C)CC)C(=O)N(C)CC(=O)N(C)[C@H]3C/C=C\CCN(C3=O)[C@@H](Cc3ccc(C(F)(F)F)cc3)C(=O)N(C)CC(=O)N[C@@H](CCc3ccc(Cl)c(Cl)c3)C(=O)N2C1 [PP2610] | AA (a compound having 20 or more is denoted as AA) | A (a compound having 10 or more and less than 20 is denoted as A) | – | – | –
5 | CCO[C@@H]1C[C@H]2C(=O)NC3(CC(C)(C)C3)C(=O)N(C)[C@@H](C3CCCC3)C(=O)N(C)[C@H](C(=O)N(C)CC)CC(=O)N(C)[C@H]3CCC/C=C/c4ccc(cc4)C[C@@H](C(=O)N(C)CC(=O)N[C@@H](CCc4cc(F)c(C(F)(F)F)c(F)c4)C(=O)N2C1)N1CC/C=C\C[C@@H](C1=O)N(C)C(=O)CN(C)C(=O)[C@H]([C@@H](C)CC)NC3=O [PP1835] | – | – | A (a compound having 10 or more and less than 20 is denoted as A) | B (a compound having 3 or more and less than 10 is denoted as B) | –
6 | CCO[C@H]1CCN2C(=O)[C@H](CCc3cc(F)c(C(F)(F)F)c(F)c3)NC(=O)CN(C)C(=O)[C@H](Cc3ccc(C(F)(F)F)cc3)N3CCCCC[C@@H](C3=O)N(C)C(=O)CN(C)C(=O)[C@H]([C@@H](C)CC)NC(=O)[C@H](CC(C)C)N(C)C(=O)C[C@@H](C(=O)N3CCOCC3)N(C)C(=O)[C@H](C3CCCC3)N(C)C(=O)C3(CCC3)NC(=O)[C@H]12 [PP1068] | – | – | – | – | NRAS/KRAS (ratio of KD value with respect to NRAS to KD value with respect to KRAS) [1, 3]: A (a compound having 10 or more and less than 20 is denoted as A); HRAS/KRAS (ratio of KD value with respect to HRAS to KD value with respect to KRAS) [2, 4]: B (a compound having 3 or more and less than 10 is denoted as B)
